Publication PMC6008465 (British Journal of Cancer, 2018)

Experiments:
[1] = test system: IL-6; conditions: quoted in discussion, no reference given, cited from earlier work
[2] = test system: phosphor-ERK levels; conditions: quoted in discussion, no reference given; read-out: IC50 for inhibition of phosphor-ERK levels; cited from earlier work
[3] = test system: cyclin D1; conditions: quoted in discussion, no reference given, cited from earlier work
[4] = test system: patients with advanced solid tumours; experiment: Phase 1 Part A (dose escalation): safety, DLT, MTD; type: in vivo, human
Procedure: The primary objectives of this phase 1 study were to evaluate the safety, tolerability, and MTD of once-weekly (Schedule I) and twice-weekly (Schedule II) dosing. Secondary objectives included evaluation of the PK profile of E6201. […] Toxicity was managed by dose interruption, reduction, and/or discontinuation. Only Cycle 1 adverse events (AEs) were evaluable as DLTs. Based on AEs reported at 480 mg/m^2 and 400 mg/m^2, the protocol was amended to include up to 6 additional toxicity-evaluable patients at 320 mg/m^2, to confirm this as the MTD. All ongoing patients could continue at 320 mg/m^2, regardless of initial starting dose.
Safety was assessed by monitoring AEs, serious AEs (SAEs), laboratory parameters, vital signs, 12-lead electrocardiograms (ECGs), Eastern Cooperative Oncology Group performance status, and symptom-directed physical and neurologic examination findings. AEs were graded by investigators based on the National Cancer Institute Common Terminology Criteria for Adverse Events, version 3.[16]

## CCNc1cc(O)c2c(c1)/C=C/C[C@H](O)[C@H](O)C(=O)/C=C\[C@@H](C)[C@H](C)OC2=O [E6201, (3S,4R,5Z,8S,9S,11E)-14-(ethylamino)-8,9,16-trihydroxy-3,4-dimethyl-3,4,9,19-tetrahydro-1H-2-benzoxacyclotetradecine-1,7 (8H)-dione]
[1]
  IC50 for inhibition of spontaneous secretion of IL-6: 4.09 ng/mL
[1]; read-out: IC50 for inhibition of spontaneous secretion of IL-6
  IC50: 10.5 nM
[2]
  IC50: 2.08 nM
[3]
  IC50 for inhibition of cyclin D1: 1.87 ng/mL
[3]; read-out: IC50 for inhibition of cyclin D1
  IC50: 4.8 nM
[4]; Part A
  Patients who discontinued treatment due to SAEs: Two
[4]; Part A (160 and 320 mg/m^2 groups)
  Patients with grade 1/2 eye disorders: two
[4]; Part A overall, 9 patients
  Nausea TEAE, patients: 36%
[4]; Part A, 20 mg/m^2 (n=4)
  Abdominal pain TEAE incidence, All grades: 1 (25.0) n (%)
  Abdominal pain TEAE incidence, G≥3: 0 n (%)
  Constipation TEAE incidence, All grades: 1 (25.0) n (%)
  Constipation TEAE incidence, G≥3: 0 n (%)
  Decreased appetite TEAE incidence, All grades: 1 (25.0) n (%)
  Decreased appetite TEAE incidence, G≥3: 0 n (%)
  Fatigue TEAE incidence, All grades: 1 (25.0) n (%)
  Fatigue TEAE incidence, G≥3: 0 n (%)
  Hypokalemia TEAE incidence, All grades: 1 (25.0) n (%)
  Hypokalemia TEAE incidence, G≥3: 0 n (%)
  Nausea TEAE incidence, All grades: 1 (25.0) n (%)
  Nausea TEAE incidence, G≥3: 0 n (%)
  Peripheral edema TEAE incidence, All grades: 1 (25.0) n (%)
  Peripheral edema TEAE incidence, G≥3: 0 n (%)
  Vomiting TEAE incidence, All grades: 0 n (%)
  Vomiting TEAE incidence, G≥3: 0 n (%)
[4]; Part A, 40 mg/m^2 (n=3)
  Abdominal pain TEAE incidence, All grades: 1 (33.3) n (%)
  Abdominal pain TEAE incidence, G≥3: 0 n (%)
  Constipation TEAE incidence, All grades: 0 n (%)
  Constipation TEAE incidence, G≥3: 0 n (%)
  Decreased appetite TEAE incidence, All grades: 0 n (%)
  Decreased appetite TEAE incidence, G≥3: 0 n (%)
  Fatigue TEAE incidence, All grades: 0 n (%)
  Fatigue TEAE incidence, G≥3: 0 n (%)
  Hypokalemia TEAE incidence, All grades: 1 (33.3) n (%)
  Hypokalemia TEAE incidence, G≥3: 0 n (%)
  Nausea TEAE incidence, All grades: 1 (33.3) n (%)
  Nausea TEAE incidence, G≥3: 0 n (%)
  Peripheral edema TEAE incidence, All grades: 0 n (%)
  Peripheral edema TEAE incidence, G≥3: 0 n (%)
  Vomiting TEAE incidence, All grades: 1 (33.3) n (%)
  Vomiting TEAE incidence, G≥3: 0 n (%)
[4]; Part A, 80 mg/m^2 (n=3)
  Abdominal pain TEAE incidence, All grades: 0 n (%)
  Abdominal pain TEAE incidence, G≥3: 0 n (%)
  Constipation TEAE incidence, All grades: 1 (33.3) n (%)
  Constipation TEAE incidence, G≥3: 0 n (%)
  Decreased appetite TEAE incidence, All grades: 0 n (%)
  Decreased appetite TEAE incidence, G≥3: 0 n (%)
  Fatigue TEAE incidence, All grades: 0 n (%)
  Fatigue TEAE incidence, G≥3: 0 n (%)
  Hypokalemia TEAE incidence, All grades: 0 n (%)
  Hypokalemia TEAE incidence, G≥3: 0 n (%)
  Nausea TEAE incidence, All grades: 0 n (%)
  Nausea TEAE incidence, G≥3: 0 n (%)
  Peripheral edema TEAE incidence, All grades: 1 (33.3) n (%)
  Peripheral edema TEAE incidence, G≥3: 0 n (%)
  Vomiting TEAE incidence, All grades: 0 n (%)
  Vomiting TEAE incidence, G≥3: 0 n (%)
[4]; Part A, 160 mg/m^2 (n=3)
  Abdominal pain TEAE incidence, All grades: 1 (33.3) n (%)
  Abdominal pain TEAE incidence, G≥3: 1 (33.3) n (%)
  Constipation TEAE incidence, All grades: 1 (33.3) n (%)
  Constipation TEAE incidence, G≥3: 0 n (%)
  Decreased appetite TEAE incidence, All grades: 1 (33.3) n (%)
  Decreased appetite TEAE incidence, G≥3: 0 n (%)
  Fatigue TEAE incidence, All grades: 1 (33.3) n (%)
  Fatigue TEAE incidence, G≥3: 0 n (%)
  Hypokalemia TEAE incidence, All grades: 0 n (%)
  Hypokalemia TEAE incidence, G≥3: 0 n (%)
  Nausea TEAE incidence, All grades: 1 (33.3) n (%)
  Nausea TEAE incidence, G≥3: 0 n (%)
  Peripheral edema TEAE incidence, All grades: 1 (33.3) n (%)
  Peripheral edema TEAE incidence, G≥3: 0 n (%)
  Vomiting TEAE incidence, All grades: 1 (33.3) n (%)
  Vomiting TEAE incidence, G≥3: 0 n (%)
[4]; Part A, 320 mg/m^2 (n=7)
  Abdominal pain TEAE incidence, All grades: 2 (28.6) n (%)
  Abdominal pain TEAE incidence, G≥3: 1 (14.3) n (%)
  Constipation TEAE incidence, All grades: 2 (28.6) n (%)
  Constipation TEAE incidence, G≥3: 0 n (%)
  Decreased appetite TEAE incidence, All grades: 2 (28.6) n (%)
  Decreased appetite TEAE incidence, G≥3: 1 (14.3) n (%)
  Fatigue TEAE incidence, All grades: 3 (42.9) n (%)
  Fatigue TEAE incidence, G≥3: 1 (14.3) n (%)
  Hypokalemia TEAE incidence, All grades: 2 (28.6) n (%)
  Hypokalemia TEAE incidence, G≥3: 0 n (%)
  Nausea TEAE incidence, All grades: 5 (71.4) n (%)
  Nausea TEAE incidence, G≥3: 1 (14.3) n (%)
  Patients with a DLT (QTcF increase from baseline > 60 ms) and grade 2 CNS toxicities: One
  Peripheral edema TEAE incidence, All grades: 1 (14.3) n (%)
  Peripheral edema TEAE incidence, G≥3: 1 (14.3) n (%)
  Vomiting TEAE incidence, All grades: 4 (57.1) n (%)
  Vomiting TEAE incidence, G≥3: 0 n (%)
[4]; Part A, 320 mg/m^2 group
  Patients with grade 3 bradycardia (unrelated to E6201): one
[4]; Part A, 320 mg/m^2 group, post-Cycle 1
  Deaths (abnormal hepatic function, possibly related to E6201): 1 patient
[4]; Part A, 400 mg/m^2
  Patients with CNS toxicity (grade 1 dizziness) treated conservatively as a DLT: 1 patient
[4]; Part A, 400 mg/m^2 (n=1)
  Abdominal pain TEAE incidence, All grades: 0 n (%)
  Abdominal pain TEAE incidence, G≥3: 0 n (%)
  Constipation TEAE incidence, All grades: 0 n (%)
  Constipation TEAE incidence, G≥3: 0 n (%)
  Decreased appetite TEAE incidence, All grades: 0 n (%)
  Decreased appetite TEAE incidence, G≥3: 0 n (%)
  Fatigue TEAE incidence, All grades: 0 n (%)
  Fatigue TEAE incidence, G≥3: 0 n (%)
  Hypokalemia TEAE incidence, All grades: 1 (100) n (%)
  Hypokalemia TEAE incidence, G≥3: 1 (100) n (%)
  Nausea TEAE incidence, All grades: 0 n (%)
  Nausea TEAE incidence, G≥3: 0 n (%)
  Peripheral edema TEAE incidence, All grades: 0 n (%)
  Peripheral edema TEAE incidence, G≥3: 0 n (%)
  Vomiting TEAE incidence, All grades: 0 n (%)
  Vomiting TEAE incidence, G≥3: 0 n (%)
[4]; Part A, 480 mg/m^2 (n=4)
  Abdominal pain TEAE incidence, All grades: 1 (25.0) n (%)
  Abdominal pain TEAE incidence, G≥3: 0 n (%)
  Constipation TEAE incidence, All grades: 2 (50.0) n (%)
  Constipation TEAE incidence, G≥3: 0 n (%)
  Decreased appetite TEAE incidence, All grades: 1 (25.0) n (%)
  Decreased appetite TEAE incidence, G≥3: 0 n (%)
  Fatigue TEAE incidence, All grades: 2 (50.0) n (%)
  Fatigue TEAE incidence, G≥3: 0 n (%)
  Hypokalemia TEAE incidence, All grades: 2 (50.0) n (%)
  Hypokalemia TEAE incidence, G≥3: 0 n (%)
  Nausea TEAE incidence, All grades: 1 (25.0) n (%)
  Nausea TEAE incidence, G≥3: 0 n (%)
  Peripheral edema TEAE incidence, All grades: 0 n (%)
  Peripheral edema TEAE incidence, G≥3: 0 n (%)
  Vomiting TEAE incidence, All grades: 1 (25.0) n (%)
  Vomiting TEAE incidence, G≥3: 0 n (%)
[4]; Part A, 480 mg/m^2, Cycle 2
  QTcF prolongation to >500 ms, patients: one
[4]; Part A, 480 mg/m^2, QTcF > 500 ms, grade 4 confusion, QTcF increase > 60 ms
  Patients with DLTs: 3 patients
[4]; Part A, 2 patients
  Grade 3/4 ECG QT prolonged, patients: 8.0%
  Grade 3/4 abdominal pain, patients: 8.0%
  Grade 3/4 hyperbilirubinemia, patients: 8.0%
  Grade 3/4 syncope, patients: 8.0%
[4]; Part A, 8 patients
  Treatment-emergent SAEs other than death, patients: 32.0%
[4]; Part A, 11 patients
  Grade 3/4 TEAEs, patients: 44.0%
[4]; Part A, 30-min infusion, three patients
  QT prolongation reported as an AE (Grade 2/3, DLT, probably related), patients: 12.0%
[4]; Part A, Eleven patients
  Patients with ≥1 TEAE assessed as treatment-related: 44.0%
[4]; Part A, Total (N=25)
  Abdominal pain TEAE incidence, All grades: 6 (24.0) n (%)
  Abdominal pain TEAE incidence, G≥3: 2 (8.0) n (%)
  Constipation TEAE incidence, All grades: 7 (28.0) n (%)
  Constipation TEAE incidence, G≥3: 0 n (%)
  Decreased appetite TEAE incidence, All grades: 5 (20.0) n (%)
  Decreased appetite TEAE incidence, G≥3: 1 (4.0) n (%)
  Fatigue TEAE incidence, All grades: 7 (28.0) n (%)
  Fatigue TEAE incidence, G≥3: 1 (4.0) n (%)
  Hypokalemia TEAE incidence, All grades: 7 (28.0) n (%)
  Hypokalemia TEAE incidence, G≥3: 1 (4.0) n (%)
  Nausea TEAE incidence, All grades: 9 (36.0) n (%)
  Nausea TEAE incidence, G≥3: 1 (4.0) n (%)
  Peripheral edema TEAE incidence, All grades: 4 (16.0) n (%)
  Peripheral edema TEAE incidence, G≥3: 1 (4.0) n (%)
  Vomiting TEAE incidence, All grades: 7 (28.0) n (%)
  Vomiting TEAE incidence, G≥3: 0 n (%)
[4]; Part A, five patients
  QTcF increase of 30–60 ms from baseline, patients: 20.0%
[4]; Part A, five patients across dose groups
  QTcF prolongation to 450–500 ms, patients: 20.0%
[4]; Part A, two patients
  QTcF increase of >60 ms from baseline, patients: 8.0%
[4]; Part A, 30-min IV infusion once-weekly for 3 weeks of a 28-day cycle
  Maximum-tolerated dose (MTD): 320 mg/m^2
